Laboratory results taken from ChEMBL document CHEMBL5344443, “Manzamine-A Alters In Vitro Calvarial Osteoclast Function” (J Nat Prod, 2024).
Activity calls are given as the source filed them. The calls are words filed in the database; no cut-off is given here.

Tests used:
Assay type in all cases: functional, cell-based
RAW264.7 [1] = assay: Induction of apoptosis in mouse RAW 264.7 preosteoclast cells at 2.5 uM incubated for 24 hrs by Caspase 3/7 assay
RAW264.7 [2] = assay: Antiproliferative activity against mouse differentiated RAW 264.7 osteoclast cells assessed as reduction in cell viability incubated for 24 hrs by MTS viability assay; details: RAW264.7, 24 h
RAW264.7 [3] = assay: Disruption of differentiated mouse RAW 264.7 osteoclast assessed as reduction in cell density at 120 uM incubated for 48 hrs by TRAP staining
RAW264.7 [4] = assay: Disruption of differentiated mouse RAW 264.7 osteoclast assessed as reduction in cell density at 1.6 uM incubated for 24 hrs by TRAP staining
RAW264.7 [5] = assay: Disruption of differentiated mouse RAW 264.7 osteoclast assessed as loss of osteoclast at 1.6 uM incubated for 72 hrs by TRAP staining
RAW264.7 [6] = assay: Disruption of differentiated mouse RAW 264.7 osteoclast assessed as reduction in cell density at 47 uM incubated for 48 hrs by TRAP staining
RAW264.7 [7] = assay: Disruption of differentiated mouse RAW 264.7 osteoclast assessed as reduction in cell density at 47 uM incubated for 72 hrs by TRAP staining
RAW264.7 [8] = assay: Antiproliferative activity against mouse differentiated RAW 264.7 osteoclast cells assessed as reduction in cell viability incubated for 72 hrs by MTS viability assay; details: RAW264.7, 72 h
RAW264.7 [9] = assay: Induction of apoptosis in mouse differentiated RAW 264.7 osteoclast cells at 47 uM incubated for 72 hrs by Caspase 3/7 assay
RAW264.7 [10] = assay: Induction of apoptosis in mouse differentiated RAW 264.7 osteoclast cells at 1.6 uM incubated for 24 hrs by Caspase 3/7 assay
RAW264.7 [11] = assay: Disruption of differentiated mouse RAW 264.7 osteoclast assessed as reduction in cell density at 120 uM incubated for 24 hrs by TRAP staining
RAW264.7 [12] = assay: Downregulation of Six1 mRNA expression in mouse differentiated RAW 264.7 osteoclasts cells at 47 uM incubated for 48 hrs by qRT-PCR analysis
RAW264.7 [13] = assay: Induction of apoptosis in mouse differentiated RAW 264.7 osteoclast cells at 1.6 uM incubated for 48 hrs by Caspase 3/7 assay
RAW264.7 [14] = assay: Disruption of differentiated mouse RAW 264.7 osteoclast assessed as loss of osteoclast at 1.6 uM incubated for 48 hrs by TRAP staining
RAW264.7 [15] = assay: Induction of apoptosis in mouse differentiated RAW 264.7 osteoclast cells at 47 uM incubated for 24 hrs by Caspase 3/7 assay
RAW264.7 [16] = assay: Antiproliferative activity against mouse RAW 264.7 preosteoclast cells assessed as reduction in cell viability incubated for 24 hrs by MTS viability assay; details: RAW264.7, 24 h
RAW264.7 [17] = assay: Downregulation of Six1 mRNA expression in mouse differentiated RAW 264.7 osteoclasts cells at 47 uM incubated for 24 hrs by qRT-PCR analysis
RAW264.7 [18] = assay: Induction of apoptosis in mouse RAW 264.7 preosteoclast cells at 2.5 uM incubated for 72 hrs by Caspase 3/7 assay
RAW264.7 [19] = assay: Disruption of differentiated mouse RAW 264.7 osteoclast assessed as loss of osteoclast at 120 uM incubated for 72 hrs by TRAP staining
RAW264.7 [20] = assay: Antiproliferative activity against mouse RAW 264.7 preosteoclast cells assessed as reduction in cell viability incubated for 48 hrs by MTS viability assay; details: RAW264.7, 48 h
RAW264.7 [21] = assay: Disruption of differentiated mouse RAW 264.7 osteoclast assessed as loss of osteoclast at 120 uM incubated for 24 hrs by TRAP staining
RAW264.7 [22] = assay: Downregulation of Six1 mRNA expression in mouse RAW 264.7 preosteoclasts at 2.5 uM incubated for 48 hrs by qRT-PCR analysis
RAW264.7 [23] = assay: Disruption of differentiated mouse RAW 264.7 osteoclast assessed as reduction in cell density at 1.6 uM incubated for 72 hrs by TRAP staining
RAW264.7 [24] = assay: Disruption of differentiated mouse RAW 264.7 osteoclast assessed as loss of osteoclast at 47 uM incubated for 48 hrs by TRAP staining
RAW264.7 [25] = assay: Downregulation of Six1 mRNA expression in mouse differentiated RAW 264.7 osteoclasts cells at 120 uM incubated for 24 hrs by qRT-PCR analysis
RAW264.7 [26] = assay: Induction of apoptosis in mouse differentiated RAW 264.7 osteoclast cells at 1.6 uM incubated for 72 hrs by Caspase 3/7 assay
RAW264.7 [27] = assay: Downregulation of Six1 mRNA expression in mouse differentiated RAW 264.7 osteoclasts cells at 120 uM incubated for 48 hrs by qRT-PCR analysis
RAW264.7 [28] = assay: Induction of apoptosis in mouse differentiated RAW 264.7 osteoclast cells at 120 uM incubated for 48 hrs by Caspase 3/7 assay
RAW264.7 [29] = assay: Disruption of differentiated mouse RAW 264.7 osteoclast assessed as loss of osteoclast at 47 uM incubated for 72 hrs by TRAP staining
RAW264.7 [30] = assay: Antiproliferative activity against mouse differentiated RAW 264.7 osteoclast cells assessed as reduction in cell viability incubated for 48 hrs by MTS viability assay; details: RAW264.7, 48 h
RAW264.7 [31] = assay: Antiproliferative activity against mouse RAW 264.7 preosteoclast cells assessed as reduction in cell viability incubated for 72 hrs by MTS viability assay; details: RAW264.7, 72 h
RAW264.7 [32] = assay: Disruption of differentiated mouse RAW 264.7 osteoclast assessed as reduction in cell density at 1.6 uM incubated for 48 hrs by TRAP staining
RAW264.7 [33] = assay: Induction of apoptosis in mouse differentiated RAW 264.7 osteoclast cells at 120 uM incubated for 72 hrs by Caspase 3/7 assay
RAW264.7 [34] = assay: Disruption of differentiated mouse RAW 264.7 osteoclast assessed as loss of osteoclast at 47 uM incubated for 24 hrs by TRAP staining
RAW264.7 [35] = assay: Disruption of differentiated mouse RAW 264.7 osteoclast assessed as reduction in cell density at 47 uM incubated for 24 hrs by TRAP staining
RAW264.7 [36] = assay: Disruption of differentiated mouse RAW 264.7 osteoclast assessed as loss of osteoclast at 1.6 uM incubated for 24 hrs by TRAP staining
RAW264.7 [37] = assay: Disruption of differentiated mouse RAW 264.7 osteoclast assessed as loss of osteoclast at 120 uM incubated for 48 hrs by TRAP staining
RAW264.7 [38] = assay: Disruption of differentiated mouse RAW 264.7 osteoclast assessed as reduction in cell density at 120 uM incubated for 72 hrs by TRAP staining
RAW264.7 [39] = assay: Induction of apoptosis in mouse differentiated RAW 264.7 osteoclast cells at 120 uM incubated for 24 hrs by Caspase 3/7 assay
RAW264.7 [40] = assay: Downregulation of Six1 mRNA expression in mouse RAW 264.7 preosteoclasts at 2.5 uM incubated for 24 hrs by qRT-PCR analysis

O[C@]12C=C(c3nccc4c3[nH]c3ccccc34)[C@@H]3CCN(CCCC/C=C\CC1)C[C@@]31C[C@@H]3/C=C\CCCCN3[C@H]12 [MANZAMINE A]
Activity (RAW264.7 [1]): Active | IC50 (RAW264.7 [2]): 1.6 µM | Activity (RAW264.7 [3]): Active | Activity (RAW264.7 [4]): inactive | Activity (RAW264.7 [5]): Active | Activity (RAW264.7 [6]): Active | Activity (RAW264.7 [7]): Active | IC50 (RAW264.7 [8]): 47 µM | Activity (RAW264.7 [9]): inactive | Activity (RAW264.7 [10]): Active | Activity (RAW264.7 [11]): Active | Activity (RAW264.7 [12]): Active | Activity (RAW264.7 [13]): Active | Activity (RAW264.7 [14]): Active | Activity (RAW264.7 [15]): Active | IC50 (RAW264.7 [16]): 2.5 µM | Activity (RAW264.7 [17]): Active | Activity (RAW264.7 [18]): inactive | Activity (RAW264.7 [19]): Active | IC50 (RAW264.7 [20]): 2.2 µM | Activity (RAW264.7 [21]): Active | Activity (RAW264.7 [22]): Active | Activity (RAW264.7 [23]): Active | Activity (RAW264.7 [24]): Active | Activity (RAW264.7 [25]): Active | Activity (RAW264.7 [26]): inactive | Activity (RAW264.7 [27]): Active | Activity (RAW264.7 [28]): inactive | Activity (RAW264.7 [29]): Active | IC50 (RAW264.7 [30]): 120 µM | IC50 (RAW264.7 [31]): 1.9 µM | Activity (RAW264.7 [32]): Active | Activity (RAW264.7 [33]): inactive | Activity (RAW264.7 [34]): Active | Activity (RAW264.7 [35]): Active | Activity (RAW264.7 [36]): inactive | Activity (RAW264.7 [37]): Active | Activity (RAW264.7 [38]): Active | Activity (RAW264.7 [39]): Active | Activity (RAW264.7 [40]): Active
